Source: patent US20020001582A1, “Methods and compositions for inhibiting microbial growth” (priority 1999, published 2002)

Test system: Fusarium
Experiment: Lysozyme against Fusarium, plug in PD broth
Format: cell-based
Experimental: PD broth was prepared and autoclaved in dilution bottles (100 ml) and allowed to cool. Required amounts of lysozyme were added into the bottles and dissolved. […] A square of Fusarium (5-10 mm square “plug”) was cut and placed in/near the center of each dish. The plates were incubated at room temperature for 2 weeks. The trial was carried out in triplicate and was repeated three times.
The fungal growth was quantified by measuring the diameter of Fusarium growth and the coverage of the plates by the fungus. The measurements (given in mm) also include the size of the inoculum plug inserted into the plate of media. The color change and the change in the physical appearance (fuzzy, not fuzzy) were also monitored. The Fusarium growth is pink to dark pink. All the numbers shown are the averages of three replicates for each treatment. The diameter of the plate was approximately 85 mm.

lysozyme: type c egg white lysozyme, enzyme of approximately 129 amino acids; commercially available from Canadian Inovatech, Inc.
Fusarium growth (250 ppm, broth turned yellow after 10 days): quite limited
diameter of Fusarium growth (Batch 1, 25 ppm, day 0 (inoculum plug)): 9.3 mm
growth, color and physical appearance (Batch 1, 25 ppm, day 4): Confluent, pink
growth, color and physical appearance (Batch 1, 25 ppm, day 7): Confluent, dark
growth, color and physical appearance (Batch 1, 25 ppm, day 11): Confluent, dark
diameter of Fusarium growth (Batch 1, 50 ppm, day 0 (inoculum plug)): 9.7 mm
growth, color and physical appearance (Batch 1, 50 ppm, day 4): Confluent, pink
growth, color and physical appearance (Batch 1, 50 ppm, day 7): Confluent, dark
growth, color and physical appearance (Batch 1, 50 ppm, day 11): Confluent, dark
diameter of Fusarium growth (Batch 1, 75 ppm, day 0 (inoculum plug)): 8.3 mm
coverage of the plates by the fungus (Batch 1, 75 ppm, day 4): 36.7% covered
diameter of Fusarium growth (Batch 1, 75 ppm, day 4): 23.7 mm
coverage of the plates by the fungus (Batch 1, 75 ppm, day 7): 60% covered
diameter of Fusarium growth (Batch 1, 75 ppm, day 7): 27.0 mm
growth, color and physical appearance (Batch 1, 75 ppm, day 11): Confluent, dark
diameter of Fusarium growth (Batch 1, 100 ppm, day 0 (inoculum plug)): 8.0 mm
coverage of the plates by the fungus (Batch 1, 100 ppm, day 4): 26.7% covered
diameter of Fusarium growth (Batch 1, 100 ppm, day 4): 23.7 mm
coverage of the plates by the fungus (Batch 1, 100 ppm, day 7): 46.7% covered
diameter of Fusarium growth (Batch 1, 100 ppm, day 7): 28.3 mm
coverage of the plates by the fungus (Batch 1, 100 ppm, day 11): 80% covered
growth, color and physical appearance (Batch 1, 100 ppm, day 11): Dark pink
diameter of Fusarium growth (Batch 1, 250 ppm, day 0 (inoculum plug)): 8.7 mm
diameter of Fusarium growth (Batch 1, 250 ppm, day 4): 16.0 mm
diameter of Fusarium growth (Batch 1, 250 ppm, day 7): 22.0 mm
coverage of the plates by the fungus (Batch 1, 250 ppm, day 11): 29.7% covered
growth, color and physical appearance (Batch 1, 250 ppm, day 11): Yellow broth
diameter of Fusarium growth (Batch 2, 25 ppm, day 0 (inoculum plug)): 7.8 mm
coverage of the plates by the fungus (Batch 2, 25 ppm, day 4): 76.7%
growth, color and physical appearance (Batch 2, 25 ppm, day 4): dark peach
coverage of the plates by the fungus (Batch 2, 25 ppm, day 6): 88.3%
growth, color and physical appearance (Batch 2, 25 ppm, day 6): pink
coverage of the plates by the fungus (Batch 2, 25 ppm, day 8): 91.7%
growth, color and physical appearance (Batch 2, 25 ppm, day 8): dark pink
coverage of the plates by the fungus (Batch 2, 25 ppm, day 11): 91.7%
growth, color and physical appearance (Batch 2, 25 ppm, day 11): dark pink
coverage of the plates by the fungus (Batch 2, 25 ppm, day 14): 91.7%
growth, color and physical appearance (Batch 2, 25 ppm, day 14): dark pink,
diameter of Fusarium growth (Batch 2, 50 ppm, day 0 (inoculum plug)): 7.5 mm
coverage of the plates by the fungus (Batch 2, 50 ppm, day 4): 43.3%
growth, color and physical appearance (Batch 2, 50 ppm, day 4): peach
coverage of the plates by the fungus (Batch 2, 50 ppm, day 6): 60%
growth, color and physical appearance (Batch 2, 50 ppm, day 6): pink
coverage of the plates by the fungus (Batch 2, 50 ppm, day 8): 61.7%
growth, color and physical appearance (Batch 2, 50 ppm, day 8): dark pink
coverage of the plates by the fungus (Batch 2, 50 ppm, day 11): 68.3%
growth, color and physical appearance (Batch 2, 50 ppm, day 11): dark pink
coverage of the plates by the fungus (Batch 2, 50 ppm, day 14): 55.0%
growth, color and physical appearance (Batch 2, 50 ppm, day 14): dark pink,
diameter of Fusarium growth (Batch 2, 75 ppm, day 0 (inoculum plug)): 8.0 mm
coverage of the plates by the fungus (Batch 2, 75 ppm, day 4): 13.3%
diameter of Fusarium growth (Batch 2, 75 ppm, day 4): 21.3 mm
growth, color and physical appearance (Batch 2, 75 ppm, day 4): peach
coverage of the plates by the fungus (Batch 2, 75 ppm, day 6): 40%
growth, color and physical appearance (Batch 2, 75 ppm, day 6): pink
coverage of the plates by the fungus (Batch 2, 75 ppm, day 8): 46.7%
growth, color and physical appearance (Batch 2, 75 ppm, day 8): pink
coverage of the plates by the fungus (Batch 2, 75 ppm, day 11): 61.7%
growth, color and physical appearance (Batch 2, 75 ppm, day 11): dark pink
coverage of the plates by the fungus (Batch 2, 75 ppm, day 14): 68.3%
growth, color and physical appearance (Batch 2, 75 ppm, day 14): dark pink,
diameter of Fusarium growth (Batch 2, 100 ppm, day 0 (inoculum plug)): 7.8 mm
diameter of Fusarium growth (Batch 2, 100 ppm, day 4): 22.3 mm
growth, color and physical appearance (Batch 2, 100 ppm, day 4): peach
diameter of Fusarium growth (Batch 2, 100 ppm, day 6): 20.0 mm
growth, color and physical appearance (Batch 2, 100 ppm, day 6): light peach
coverage of the plates by the fungus (Batch 2, 100 ppm, day 8): 30.3%
growth, color and physical appearance (Batch 2, 100 ppm, day 8): pink
diameter of Fusarium growth (Batch 2, 100 ppm, day 11): 37 mm
growth, color and physical appearance (Batch 2, 100 ppm, day 11): pink/yellow
diameter of Fusarium growth (Batch 2, 100 ppm, day 14): 42.7 mm
growth, color and physical appearance (Batch 2, 100 ppm, day 14): pink, fuzzy
diameter of Fusarium growth (Batch 2, 250 ppm, day 0 (inoculum plug)): 7.3 mm
diameter of Fusarium growth (Batch 2, 250 ppm, day 4): 17.0 mm
growth, color and physical appearance (Batch 2, 250 ppm, day 4): light peach
diameter of Fusarium growth (Batch 2, 250 ppm, day 6): 19.7 mm
growth, color and physical appearance (Batch 2, 250 ppm, day 6): very light
diameter of Fusarium growth (Batch 2, 250 ppm, day 8): 22 mm
growth, color and physical appearance (Batch 2, 250 ppm, day 8): dark peach
diameter of Fusarium growth (Batch 2, 250 ppm, day 11): 25.7 mm
growth, color and physical appearance (Batch 2, 250 ppm, day 11): yellow broth
diameter of Fusarium growth (Batch 2, 250 ppm, day 14): 35.0 mm
growth, color and physical appearance (Batch 2, 250 ppm, day 14): pink, fuzzy
diameter of Fusarium growth (Batch 3, 25 ppm, day 0 (inoculum plug)): 8.2 mm
coverage of the plates by the fungus (Batch 3, 25 ppm, day 4): 25% covered
diameter of Fusarium growth (Batch 3, 25 ppm, day 4): 26.3 mm
growth, color and physical appearance (Batch 3, 25 ppm, day 4): peach
coverage of the plates by the fungus (Batch 3, 25 ppm, day 7): 33.3% covered
diameter of Fusarium growth (Batch 3, 25 ppm, day 7): 24.7 mm
growth, color and physical appearance (Batch 3, 25 ppm, day 7): pink, fuzzy
coverage of the plates by the fungus (Batch 3, 25 ppm, day 11): 38.3%
diameter of Fusarium growth (Batch 3, 25 ppm, day 11): 31.3 mm
growth, color and physical appearance (Batch 3, 25 ppm, day 11): pink, fuzzy
coverage of the plates by the fungus (Batch 3, 25 ppm, day 14): 45.0% covered,
diameter of Fusarium growth (Batch 3, 25 ppm, day 14): 32.0 mm
growth, color and physical appearance (Batch 3, 25 ppm, day 14): pink, fuzzy
diameter of Fusarium growth (Batch 3, 50 ppm, day 0 (inoculum plug)): 7.5 mm
coverage of the plates by the fungus (Batch 3, 50 ppm, day 4): 28.3% covered
diameter of Fusarium growth (Batch 3, 50 ppm, day 4): 22.7 mm
growth, color and physical appearance (Batch 3, 50 ppm, day 4): peach
coverage of the plates by the fungus (Batch 3, 50 ppm, day 7): 41.7% covered
diameter of Fusarium growth (Batch 3, 50 ppm, day 7): 25.7 mm
growth, color and physical appearance (Batch 3, 50 ppm, day 7): pink, fuzzy
coverage of the plates by the fungus (Batch 3, 50 ppm, day 11): 41.7%
diameter of Fusarium growth (Batch 3, 50 ppm, day 11): 28.0 mm
growth, color and physical appearance (Batch 3, 50 ppm, day 11): pink, fuzzy
coverage of the plates by the fungus (Batch 3, 50 ppm, day 14): 48.3% covered,
diameter of Fusarium growth (Batch 3, 50 ppm, day 14): 29.3 mm
growth, color and physical appearance (Batch 3, 50 ppm, day 14): pink, fuzzy
diameter of Fusarium growth (Batch 3, 75 ppm, day 0 (inoculum plug)): 8.2 mm
diameter of Fusarium growth (Batch 3, 75 ppm, day 4): 25.2 mm
growth, color and physical appearance (Batch 3, 75 ppm, day 4): peach
diameter of Fusarium growth (Batch 3, 75 ppm, day 7): 32.7 mm
growth, color and physical appearance (Batch 3, 75 ppm, day 7): pink, fuzzy
diameter of Fusarium growth (Batch 3, 75 ppm, day 11): 41.0 mm
growth, color and physical appearance (Batch 3, 75 ppm, day 11): pink, fuzzy
coverage of the plates by the fungus (Batch 3, 75 ppm, day 14): 38.1% covered,
diameter of Fusarium growth (Batch 3, 75 ppm, day 14): 43.7 mm
growth, color and physical appearance (Batch 3, 75 ppm, day 14): pink, fuzzy
diameter of Fusarium growth (Batch 3, 100 ppm, day 0 (inoculum plug)): 8.7 mm
diameter of Fusarium growth (Batch 3, 100 ppm, day 4): 21.7 mm
growth, color and physical appearance (Batch 3, 100 ppm, day 4): peach
diameter of Fusarium growth (Batch 3, 100 ppm, day 7): 25.0 mm
growth, color and physical appearance (Batch 3, 100 ppm, day 7): pink, fuzzy
diameter of Fusarium growth (Batch 3, 100 ppm, day 11): 26.0 mm
growth, color and physical appearance (Batch 3, 100 ppm, day 11): pink, fuzzy
coverage of the plates by the fungus (Batch 3, 100 ppm, day 14): 34.9% covered,
diameter of Fusarium growth (Batch 3, 100 ppm, day 14): 26.7 mm
growth, color and physical appearance (Batch 3, 100 ppm, day 14): pink, fuzzy
diameter of Fusarium growth (Batch 3, 250 ppm, day 0 (inoculum plug)): 7.3 mm
diameter of Fusarium growth (Batch 3, 250 ppm, day 4): 12.2 mm
growth, color and physical appearance (Batch 3, 250 ppm, day 4): yellow
diameter of Fusarium growth (Batch 3, 250 ppm, day 7): 20 mm
growth, color and physical appearance (Batch 3, 250 ppm, day 7): peach, fuzzy
diameter of Fusarium growth (Batch 3, 250 ppm, day 11): 29.7 mm
diameter of Fusarium growth (Batch 3, 250 ppm, day 14): 38.7 mm
growth, color and physical appearance (Batch 3, 250 ppm, day 14): peach with yellow
inhibition of Fusarium (concentrations lower than 250 ppm, not as effective): some inhibition
